Patent US20050256003A1, “Novel herbicides” (priority 2002, published 2005)

Tests used:
Type in all cases: in vivo
selected test plants = assay: Post-emergence action in a different test arrangement (Table B3); parameters: key to Post-emergence action (different test arrangement), Nasturtium / Post-emergence action (different test arrangement), Stellaria / Post-emergence action (different test arrangement), Solanum: 10=total damage; 0=no action; Ratings of from 10 to 7 (especially from 10 to 8) indicate good to very good herbicidal action; conditions: 250 g a.i./ha
[1] = tested on: monocotyledonous and dicotyledonous test plants; assay: Herbicidal action prior to emergence of the plants (pre-emergence action); parameters: key: 10=total damage; 0=no action; Ratings of from 10 to 7 (especially from 10 to 8) indicate good to very good herbicidal action; conditions: 250 g a.i./ha, pre-emergence spray, evaluated after 3 weeks, scale 10=total damage, 0=no action
Description: Herbicidal Action Prior to Emergence of the Plants (Pre-Emergence Action)
Monocotyledonous and dicotyledonous test plants are sown in standard soil in plastic pots Immediately after sowing, the test compounds, in the form of an aqueous suspension (prepared from a 25% wettable powder (Example F3, b) according to WO 97/34485) or in the form of an emulsion (prepared from a 25% emulsifiable concentrate (Example F1, c)), are applied by spraying in a concentration corresponding to 125 g or 250 g of active ingredient/ha (500 litres of water/ha). The test plants are then grown in a greenhouse under optimum conditions. After a test duration of 3 weeks, the test is evaluated in accordance with a scale of nine ratings (10=total damage, 0=no action). Ratings of from 10 to 7 (especially from 10 to 8) indicate good to very good herbicidal action.

[2] = tested on: monocotyledonous and dicotyledonous test plants; assay: Post-emergence herbicidal action; parameters: key: 10=total damage; 0=no action; Ratings of from 10 to 7 (especially from 10 to 8) indicate good to very good herbicidal action; conditions: 250 g a.i./ha, about 18 days, rating 0-10
Protocol: Post-Emergence Herbicidal Action
In a greenhouse, monocotyledonous and dicotyledonous test plants are grown in standard soil in plastic pots and at the 4- to 6-leaf stage are sprayed with an aqueous suspension of the test compounds of formula I prepared from a 25% wettable powder (Example F3, b) according to WO 97/34485) or with an emulsion of the test compounds of formula I prepared from a 25% emulsifiable concentrate (Example F1, c) according to WO 97/34485), in a concentration corresponding to 125 g or 250 g of active ingredient/ha (500 litres of water/ha). The test plants are then grown on in a greenhouse under optimum conditions. After a test duration of about 18 days, the test is evaluated in accordance with a scale of nine ratings (10=total damage, 0=no action). Ratings of from 10 to 7 (especially from 10 to 8) indicate good to very good herbicidal action.

Row | Compound | Post-emergence action (different test arrangement), Amaranthus (selected test plants) | Post-emergence action (different test arrangement), Nasturtium (selected test plants) | Post-emergence action (different test arrangement), Solanum (selected test plants) | Post-emergence action (different test arrangement), Stellaria (selected test plants) | Pre-emergence action: Abutilon (rating) [1] | Pre-emergence action: Amaranthus (rating) [1] | Pre-emergence action: Chenopodium (rating) [1] | Pre-emergence action: Cyperus (rating) [1] | Pre-emergence action: Echinochloa (rating) [1] | Pre-emergence action: Panicum (rating) [1] | Pre-emergence action: Scirpus (rating) [1] | Pre-emergence action: Sida (rating) [1] | Post-emergence action, Amaranthus [2] | Post-emergence action, Chenopodium [2] | Post-emergence action, Echinochloa [2] | Post-emergence action, Euphorbia [2] | Post-emergence action, Ipomea [2] | Post-emergence action, Sinapis [2] | Post-emergence action, Stellaria [2] | Post-emergence action, Xanthium [2]
1 | O=C1CCCC(O)=C1C(=O)c1ccc(C(F)(F)F)nc1COCCN1CCCC1=O [Compound A1.220] | 9 | 10 | 9 | 10 |  |  |  |  |  |  |  |  |  |  |  |  |  |  |  | 
2 | Cn1ncc(C(=O)c2ccc(C(F)(F)F)nc2CN2CCCC2=O)c1O [Compound B1.223] | 8 | 10 | 9 | 10 |  |  |  |  |  |  |  |  |  |  |  |  |  |  |  | 
3 | O=C1CCCC(O)=C1C(=O)c1ccc(C(F)(F)F)nc1CN1CCC1=O [Compound A1.221] | 9 | 10 | 9 | 9 |  |  |  |  |  |  |  |  |  |  |  |  |  |  |  | 
4 | Cn1c(=O)n(Cc2nc(C(F)(F)F)ccc2C(=O)C2=C(O)CCCC2=O)c(=O)n1C [Compound A1.211] | 9 | 10 | 9 | 7 |  |  |  |  |  |  |  |  |  |  |  |  |  |  |  | 
5 | O=C1CCCC(O)=C1C(=O)c1ccc(C(F)(F)F)nc1CN1CN(c2ccc(Cl)cc2)CC1=O [Compound A1.237] | 9 | 9 | 10 | 7 |  |  |  |  |  |  |  |  |  |  |  |  |  |  |  | 
6 | Cn1ncc(C(=O)c2ccc(C(F)(F)F)nc2CN2CN(c3ccc(Cl)cc3)CC2=O)c1O [Compound B1.238] | 9 | 8 | 9 | 7 |  |  |  |  |  |  |  |  |  |  |  |  |  |  |  | 
7 | CC1CCN(Cc2nc(C(F)(F)F)ccc2C(=O)c2cnn(C)c2O)C1=O (stereo not shown) [Compound B1.226] | 8 | 10 | 9 | 9 |  |  |  |  |  |  |  |  |  |  |  |  |  |  |  | 
8 | Cc1nn(Cc2nc(C(F)(F)F)ccc2C(=O)C2=C(O)CCCC2=O)c(=O)s1 [Compound A1.079] |  |  |  |  | 10 | 4 | 8 | 8 | 5 | 9 | 10 | 10 | 9 | 9 | 7 | 8 | 8 | 9 | 9 | 7
9 | O=C1CCCC(O)=C1C(=O)c1ccc(C(F)(F)F)nc1CN1CCCC1=O [Compound A1.219] | 9 | 10 | 9 | 10 |  |  |  |  |  |  |  |  |  |  |  |  |  |  |  | 
10 | Cn1ncn(Cc2nc(C(F)(F)F)ccc2C(=O)C2=C(O)C(C)(C)C(=O)C(C)(C)C2=O)c1=O [Compound A8.080] |  |  |  |  | 10 | 0 | 10 | 0 | 10 | 9 | 8 | 9 | 9 | 10 | 9 | 9 | 10 | 10 | 10 | 8
11 | CC1CCC(=O)N1Cc1nc(C(F)(F)F)ccc1C(=O)C1=C(O)CCCC1=O (stereo not shown) [Compound A1.223] | 8 | 10 | 9 | 9 |  |  |  |  |  |  |  |  |  |  |  |  |  |  |  | 
12 | Cn1ncc(C(=O)c2ccc(C(F)(F)F)nc2CN2CCC2=O)c1O [Compound B1.225] | 8 | 10 | 9 | 10 |  |  |  |  |  |  |  |  |  |  |  |  |  |  |  | 
13 | Cn1ncn(Cc2nc(C(F)(F)F)ccc2C(=O)C2=C(O)C3CCC(C3)C2=O)c1=O (stereo not shown) [Compound A6.073] |  |  |  |  | 10 | 9 | 10 | 7 | 0 | 10 | 10 | 9 | 10 | 10 | 9 | 9 | 10 | 10 | 9 | 9
14 | Cn1ncn(Cc2nc(C(F)(F)F)ccc2C(=O)C2=C(O)CCCC2=O)c1=O [Compound A1.073] |  |  |  |  | 10 | 10 | 10 | 10 | 3 | 10 | 10 | 9 | 10 | 10 | 9 | 9 | 10 | 10 | 10 | 9
15 | Cn1ncc(C(=O)c2ccc(C(F)(F)F)nc2Cn2cnn(C)c2=O)c1O [Compound B1.080] |  |  |  |  | 8 | 0 | 10 | 9 | 10 | 10 | 9 | 0 | 10 | 10 | 9 | 10 | 10 | 10 | 10 | 8
16 | COc1nn(Cc2nc(C(F)(F)F)ccc2C(=O)C2=C(O)CCCC2=O)c(=O)s1 [Compound A1.091] |  |  |  |  | 10 | 8 | 9 | 8 | 9 | 4 | 9 | 7 | 9 | 10 | 9 | 8 | 9 | 8 | 10 | 9
